Results published in patent US7323469B2, “7H-pyrrolo[2,3-d]pyrimidine derivatives” (Novartis AG, priority 2001, dated 2008).

Row | melting point | SMILES
1 | 273 to 274 °C | C[C@@H](Nc1ncnc2[nH]c(-c3ccc(CN(C)C)cc3)cc12)c1ccc(Cl)cc1 [Example 76, [(R)-1-(4-Chloro-phenyl)-ethyl]-[6-(4-dimethylaminomethyl-phenyl)-7H-pyrrolo[2,3-d]pyrimidin-4-yl]-amine]
2 | 232 to 233 °C | C[C@@H](Nc1ncnc2[nH]c(-c3ccc(CN4CCN(C)CC4)cc3)cc12)c1ccc(Cl)cc1 [Example 77, [(R)-1-(4-Chloro-phenyl)-ethyl]-{6-[4-(4-methyl-piperazin-1-ylmethyl)-phenyl]-7H-pyrrolo[2,3-d]pyrimidin-4-yl}-amine]
3 | 194 to 197 °C | C[C@@H](Nc1ncnc2[nH]c(-c3ccc(CN(CCO)CCO)cc3)cc12)c1ccccc1 [Example 82, 2-((2-Hydroxy-ethyl)-{4-[4-((R)-1-phenyl-ethylamino)-7H-pyrrolo[2,3-d]pyrimidin-6-yl]-benzyl}-amino)-ethanol]
4 | 241 to 243 °C | CCN1CCN(Cc2ccc(-c3cc4c(NCc5cccc(Cl)c5)ncnc4[nH]3)cc2)CC1 [Example 83, (3-Chloro-benzyl)-{6-[4-(4-ethyl-piperazin-1-ylmethyl)-phenyl]-7H-pyrrolo[2,3-d]pyrimidin-4-yl}-amine]
5 | 234 to 235 °C | Clc1cccc(CNc2ncnc3[nH]c(-c4ccc(CN5CCCCC5)cc4)cc23)c1 [Example 85, (3-Chloro-benzyl)-[6-(4-piperidin-1-ylmethyl-phenyl)-7H-pyrrolo[2,3-d]pyrimidin-4-yl]-amine]
6 | 231 to 233 °C | CCN(CC)Cc1ccc(-c2cc3c(NCc4cccc(Cl)c4)ncnc3[nH]2)cc1 [Example 87, (3-Chloro-benzyl)-[6-(4-diethylaminomethyl-phenyl)-7H-pyrrolo[2,3-d]pyrimidin-4-yl]-amine]
7 | 222 to 225 °C | Clc1cccc(CNc2ncnc3[nH]c(-c4ccc(CN5CCCC5)cc4)cc23)c1 [Example 88, (3-Chloro-benzyl)-[6-(4-pyrrolidin-1-ylmethyl-phenyl)-7H-pyrrolo[2,3-d]pyrimidin-4-yl]-amine]
8 | 235 to 237 °C | CN1CCN(Cc2ccc(-c3cc4c(NCc5cccc(Cl)c5)ncnc4[nH]3)cc2)CC1 [Example 89, (3-Chloro-benzyl)-{6-[4-(4-methyl-piperazin-1-ylmethyl)-phenyl]-7H-pyrrolo[2,3-d]pyrimidin-4-yl}-amine]
9 | 256 to 258 °C | CN(C)Cc1ccc(-c2cc3c(NCc4ccccc4Cl)ncnc3[nH]2)cc1 [Example 90, (2-Chloro-benzyl)-[6-(4-dimethylaminomethyl-phenyl)-7H-pyrrolo[2,3-d]pyrimidin-4-yl]-amine]
10 | 255 to 256 °C | CCN1CCN(Cc2ccc(-c3cc4c(NCc5ccccc5Cl)ncnc4[nH]3)cc2)CC1 [Example 91, (2-Chloro-benzyl)-{6-[4-(4-ethyl-piperazin-1-ylmethyl)-phenyl]-7H-pyrrolo[2,3-d]pyrimidin-4-yl}-amine]
11 | 262 to 264 °C | Clc1ccccc1CNc1ncnc2[nH]c(-c3ccc(CN4CCCCC4)cc3)cc12 [Example 92, (2-Chloro-benzyl)-[6-(4-piperidin-1-ylmethyl-phenyl)-7H-pyrrolo[2,3-d]pyrimidin-4-yl]-amine]
12 | 276 to 279 °C | Clc1ccccc1CNc1ncnc2[nH]c(-c3ccc(CN4CCOCC4)cc3)cc12 [Example 93, (2-Chloro-benzyl)-[6-(4-morpholin-4-ylmethyl-phenyl)-7H-pyrrolo[2,3-d]pyrimidin-4-yl]-amine]
13 | 264 to 265 °C | Clc1ccccc1CNc1ncnc2[nH]c(-c3ccc(CN4CCCC4)cc3)cc12 [Example 95, (2-Chloro-benzyl)-[6-(4-pyrrolidin-1-ylmethyl-phenyl)-7H-pyrrolo[2,3-d]pyrimidin-4-yl]-amine]
14 | 257 to 258 °C | CCN(CC)Cc1ccc(-c2cc3c(NCc4ccccc4Cl)ncnc3[nH]2)cc1 [Example 96, (2-Chloro-benzyl)-[6-(4-diethylaminomethyl-phenyl)-7H-pyrrolo[2,3-d]pyrimidin-4-yl]-amine]
15 | 249 to 251 °C | CCN1CCN(Cc2ccc(-c3cc4c(NCc5cc(Cl)ccc5Cl)ncnc4[nH]3)cc2)CC1 [Example 97, (2,5-Dichloro-benzyl)-{6-[4-(4-ethyl-piperazin-1-ylmethyl)-phenyl]-7H-pyrrolo[2,3-d]pyrimidin-4-yl}-amine]
16 | 254 to 257 °C | CN(C)Cc1ccc(-c2cc3c(NCc4cc(Cl)ccc4Cl)ncnc3[nH]2)cc1 [Example 98, (2,5-Dichloro-benzyl)-[6-(4-dimethylaminomethyl-phenyl)-7H-pyrrolo[2,3-d]pyrimidin-4-yl]-amine]
17 | 272 to 274 °C | Clc1ccc(Cl)c(CNc2ncnc3[nH]c(-c4ccc(CN5CCOCC5)cc4)cc23)c1 [Example 99, (2,5-Dichloro-benzyl)-[6-(4-morpholin-4-ylmethyl-phenyl)-7H-pyrrolo[2,3-d]pyrimidin-4-yl]-amine]
18 | 258 to 260 °C | Clc1ccc(Cl)c(CNc2ncnc3[nH]c(-c4ccc(CN5CCCCC5)cc4)cc23)c1 [Example 100, (2,5-Dichloro-benzyl)-[6-(4-piperidin-1-ylmethyl-phenyl)-7H-pyrrolo[2,3-d]pyrimidin-4-yl]-amine]

Row | melting point | SMILES
19 | 255 to 257 °C | CCN(CC)Cc1ccc(-c2cc3c(NCc4cc(Cl)ccc4Cl)ncnc3[nH]2)cc1 [Example 101, (2,5-Dichloro-benzyl)-[6-(4-diethylaminomethyl-phenyl)-7H-pyrrolo[2,3-d]pyrimidin-4-yl]-amine]
20 | 244 to 246 °C | CN1CCN(Cc2ccc(-c3cc4c(NCc5cc(Cl)ccc5Cl)ncnc4[nH]3)cc2)CC1 [Example 102, (2,5-Dichloro-benzyl)-{6-[4-(4-methyl-piperazin-1-ylmethyl)-phenyl]-7H-pyrrolo[2,3-d]pyrimidin-4-yl)-amine]
21 | 266 to 268 °C | Clc1ccc(Cl)c(CNc2ncnc3[nH]c(-c4ccc(CN5CCCC5)cc4)cc23)c1 [Example 103, (2,5-Dichloro-benzyl)-[6-(4-pyrrolidin-1-ylmethyl-phenyl)-7H-pyrrolo[2,3-d]pyrimidin-4-yl]-amine]
22 | 220 to 222 °C | COc1cccc(CNc2ncnc3[nH]c(-c4ccc(CN5CCCC5)cc4)cc23)c1 [Example 106, (3-Methoxy-benzyl)-[6-(4-pyrrolidin-1-ylmethyl-phenyl)-7H-pyrrolo[2,3-d]pyrimidin-4-yl]-amine]
23 | 227 to 229 °C | COc1cccc(CNc2ncnc3[nH]c(-c4ccc(CN5CCCCC5)cc4)cc23)c1 [Example 107, (3-Methoxy-benzyl)-[6-(4-piperidin-1-ylmethyl-phenyl)-7H-pyrrolo[2,3-d]pyrimidin-4-yl]-amine]
24 | 263 to 265 °C | COc1cccc(CNc2ncnc3[nH]c(-c4ccc(CN5CCOCC5)cc4)cc23)c1 [Example 107a, (3-Methoxy-benzyl)-[6-(4-morpholin-4-ylmethyl-phenyl)-7H-pyrrolo[2,3-d]pyrimidin-4-yl]-amine]
25 | 225 to 227 °C | COc1cccc(CNc2ncnc3[nH]c(-c4ccc(CN5CCN(C)CC5)cc4)cc23)c1 [Example 107b, (3-Methoxy-benzyl)-{6-[4-(4-methyl-piperazin-1-ylmethyl)-phenyl]-7H-pyrrolo[2,3-d]pyrimidin-4-yl}-amine]
26 | 231 to 233 °C | CCN1CCN(Cc2ccc(-c3cc4c(NCc5cccc(OC)c5)ncnc4[nH]3)cc2)CC1 [Example 107c, {6-[4-(4-Ethyl-piperazin-1-ylmethyl)-phenyl]-7H-pyrrolo[2,3-d]pyrimidin-4-yl}-(3-methoxy-benzyl)-amine]
27 | 246 to 248 °C | Cc1cccc(CNc2ncnc3[nH]c(-c4ccc(CN5CCCCC5)cc4)cc23)c1 [Example 107d, (3-Methyl-benzyl)-[6-(4-piperidin-1-ylmethyl-phenyl)-7H-pyrrolo[2,3-d]pyrimidin-4-yl]-amine]
28 | 259 to 261 °C | Cc1cccc(CNc2ncnc3[nH]c(-c4ccc(CN5CCOCC5)cc4)cc23)c1 [Example 107e, (3-Methyl-benzyl)-[6-(4-morpholin-4-ylmethyl-phenyl)-7H-pyrrolo[2,3-d]pyrimidin-4-yl]-amine]
29 | 241 to 243 °C | Cc1cccc(CNc2ncnc3[nH]c(-c4ccc(CN5CCCC5)cc4)cc23)c1 [Example 107h, (3-Methyl-benzyl)-[6-(4-pyrrolidin-1-ylmethyl-phenyl)-7H-pyrrolo[2,3-d]pyrimidin-4-yl]-amine]
30 | 244 to 246 °C | Cc1cccc(CNc2ncnc3[nH]c(-c4ccc(CN5CCN(C)CC5)cc4)cc23)c1 [Example 107i, (3-Methyl-benzyl)-{6-[4-(4-methyl-piperazin-1-ylmethyl)-phenyl]-7H-pyrrolo[2,3-d]pyrimidin-4-yl}-amine]
31 | 250 to 252 °C | CCN1CCN(Cc2ccc(-c3cc4c(NCc5cccc(C)c5)ncnc4[nH]3)cc2)CC1 [Example 107j, {6-[4-(4-Ethyl-piperazin-1-ylmethyl)-phenyl]-7H-pyrrolo[2,3-d]pyrimidin-4-yl}-(3-methyl-benzyl)-amine]
32 | 263 to 264 °C | COc1ccc(Nc2ncnc3[nH]c(-c4ccc(CN5CCOCC5)cc4)cc23)cn1 [Example 111, (6-Methoxy-pyridin-3-yl)-[6-(4-morpholin-4-ylmethyl-phenyl)-7H-pyrrolo[2,3-d]pyrimidin-4-yl]-amine]
33 | 241 to 242 °C | COc1ccc(Nc2ncnc3[nH]c(-c4ccc(CN5CCN(C)CC5)cc4)cc23)cn1 [Example 112, (6-Methoxy-pyridin-3-yl)-{6-[4-(4-methyl-piperazin-1-ylmethyl)-phenyl]-7H-pyrrolo[2,3-d]pyrimidin-4-yl}-amine]
34 | 210 to 212 °C | CCN1CCN(Cc2ccc(-c3cc4c(NCc5ccnc(OC)c5)ncnc4[nH]3)cc2)CC1 [Example 122, (2-Methoxy-pyridin-4-ylmethyl)-{6-[4-(4-ethyl-piperazin-1-ylmethyl)-phenyl]-7H-pyrrolo[2,3-d]pyrimidin-4-yl}-amine]
35 | 210 to 211 °C | COc1cc(CNc2ncnc3[nH]c(-c4ccc(CN(C)C)cc4)cc23)ccn1 [Example 124, (2-Methoxy-pyridin-4-ylmethyl)-{6-[4-(dimethylamino-methyl)-phenyl]-7H-pyrrolo[2,3-d]pyrimidin-4-yl}-amine]
